Measurements published in US8354381B2, “Peptide compositions for oral care systems” (E I du Pont de Nemours and Company, priority 2009, dated 2013).
Where no end group is shown, it is not given here. The star is where a group is joined. Biotin = O=C1N[C@H]2[C@H](CS[C@H]2CCCCC(=O)*)N1

tested on: pellicle-coated HAP disks; assay: Phage ELISA on pellicle-coated HAP disks; assay type: binding, human; details: over 10^10 pfu phage, A450
Source text: A total of 20 selected phage candidates (Example 1) were used in a phage ELISA experiment. Purified phage lysates were used for binding to pellicle-coated HAP disks using an anti-M13 phage antibody conjugated to horseradish-peroxidase, followed by the addition of chromogenic agent TMB (3,3′,5,5′-tetramethylbenzidine), obtained from Pierce Biotechnology (Item #34021; Rockford, Ill.). The plates were read at A450 nm.
For each phage candidate to be tested, the pellicle-coated HAP disks (3 mm diameter) was incubated for 1 h at room temperature with 200 μL of blocking buffer, consisting of 2% non-fat dry milk (Schleicher & Schuell, Inc.) in TBS. […] The tube was rinsed 6 times with wash buffer consisting of TBST-0.05%. The wells were filled with 200 μL of TBST-0.5% containing 1 mg/mL BSA (bovine serum albumin) and then 10 μL (over 10^10 pfu) of purified phage stock was added. The samples were incubated at room temperature for 60 min with slow shaking. The non-binding phage were removed by washing 6 times with TBST-0.5%. […] The conjugate solution was removed and was washed 6 times with TBST-0.5%.

Substance	O.D.450
AHPESLGIKYALDGNSDPHA (Synthetic oral-surface binding peptide) [Pell 1]	0.739
ASVSNYPPIHHLATSNTTVN (Synthetic oral-surface binding peptide) [Pell 2]	0.75
DECMEPLNAAHCWR (Synthetic oral-surface binding peptide) [Pell 3]	0.49
DECMHGSDVEFCTS (Synthetic oral-surface binding peptide) [Pell 4]	0.664
DLCSMQMMNTGCHY (Synthetic oral-surface binding peptide) [Pell 5]	0.83
DLCSSPSTWGSCIR (Synthetic oral-surface binding peptide) [Pell 6]	0.735
DPNESNYENATTVSQPTRHL (Synthetic oral-surface binding peptide) [Pell 7]	0.831
EPTHPTMRAQMHQSLRSSSP (Synthetic oral-surface binding peptide) [Pell 8]	0.712
GNTDTTPPNAVMEPTVQHKW (Synthetic oral-surface binding peptide) [Pell 9]	0.755
NGPDMVQSVGKHKNS (Synthetic oral-surface binding peptide) [Pell 10]	0.729
NGPEVRQIPANFEKL (Synthetic oral-surface binding peptide) [Pell 11]	0.607
NNTSADNPPETDSKHHLSMS (Synthetic oral-surface binding peptide) [Pell 12]	0.521
NNTWPEGAGHTMPSTNIRQA (Synthetic oral-surface binding peptide) [Pell 13]	0.598
NPTATPHMKDPMHSNAHSSA (Synthetic oral-surface binding peptide) [Pell 14]	0.7
NPTDHIPANSTNSRVSKGNT (Synthetic oral-surface binding peptide) [Pell 15]	0.567
NPTDSTHMMHARNHE (Synthetic oral-surface binding peptide) [Pell 16]	0.578
QHCITERLHPPCTK (Synthetic oral-surface binding peptide) [Pell 17]	0.614
TPCAPASFNPHCSR (Synthetic oral-surface binding peptide) [Pell 18]	0.416
TPCATYPHFSGCRA (Synthetic oral-surface binding peptide) [Pell 19]	0.731
WCTDFCTRSTPTSTSRSTTS (Synthetic oral-surface binding peptide) [Pell 20]	0.715

tested on: pellicle coated bovine enamel; assay: Phage ELISA on pellicle coated bovine enamel (Example 6); assay type: binding, human; details: 10^11 pfu phage, 30 min in vivo pellicle on bovine enamel, normalized to an internal control
Experimental: A total of 29 selected phage candidates from Table 5 were used in phage ELISA Experiment to determine binding affinity and coverage of each phage on pellicle substrates. Purified phage lysates were used for binding to pellicle coated bovine enamel using an anti-M13 phage antibody conjugated to horseradish-peroxidase, followed by the addition of chromogenic agent TMB. The plates were read at A450 nm.
The wells were filled with 1 mL of 10^11 pfu purified phage stock which was prepared by diluting in blocking buffer. […] The non-binding phage was removed by washing 5 times with PBST. […] The conjugate solution was removed and was washed 3 times with PBST.

Substance	O.D.450 (normalized)
ANELSTYAQTNPGSG (Synthetic oral-surface binding peptide) [DenP25]	0.909
APPTYQTASYPHNLPSKRKM (Synthetic oral-surface binding peptide) [DenP28]	1.203
AVVPADLNDHANHLS (Synthetic oral-surface binding peptide) [DenP10]	1.619
DHNNRQHAVEVRENKTHTAR (Synthetic oral-surface binding peptide) [DenP21]	0.728
DLGTFPNRTLKMAAH (Synthetic oral-surface binding peptide) [DenP11]	1.663
DTIHPNKMKSPSSPL (Synthetic oral-surface binding peptide) [DenP26]	1.039
EFPYYNDNPPNPERHTLR (Synthetic oral-surface binding peptide) [DenP7]	1.500
ELDHDSRHYMNGLQRKVT (Synthetic oral-surface binding peptide) [DenP15]	1.112
FDGIGLGTATRHQNR (Synthetic oral-surface binding peptide) [DenP12]	2.079
GMPTRYYHNTPPHLTPKF (Synthetic oral-surface binding peptide) [DenP8]	1.182
GPQHVLMQDTHQGYAFDN (Synthetic oral-surface binding peptide) [DenP16]	2.190
HDPNHLTHQARTIYRNANHT (Synthetic oral-surface binding peptide) [DenP23]	1.236
HKNAIQPVNDATTLDTTM (Synthetic oral-surface binding peptide) [DenP9]	1.364
HKNENIMQYNVNDRWHITPA (Synthetic oral-surface binding peptide) [DenP32]	1.441
IPWWNIRAPLNAGGG [Control, reference compound]	1.000
IYPNESMSTSNVRGPYHP (Synthetic oral-surface binding peptide) [DenP22]	1.420
KAPIANMLQPHSYQYSVA (Synthetic oral-surface binding peptide) [DenP18]	1.143
NGNNHTDIPNRSSYTGGSFA (Synthetic oral-surface binding peptide) [DenP1]	1.002
QAAQVHMMQHSRPTT (Synthetic oral-surface binding peptide) [DenP13]	0.845
QVPDYLSPTHQKKAFLEIPT (Synthetic oral-surface binding peptide) [DenP29]	0.976
SEARARTFNDHTTPMPII (Synthetic oral-surface binding peptide) [DenP14]	2.498
SNATMYNIQSHSHHQ (Synthetic oral-surface binding peptide) [DenP24]	0.979
TMTNHVYNSYTEKHSSTHRS (Synthetic oral-surface binding peptide) [DenP2]	1.951
TNDLHANPFTGTYIAPDPTS (Synthetic oral-surface binding peptide) [DenP30]	1.082
TTGSSSQADTSASMSIVPAH (Synthetic oral-surface binding peptide) [DenP17]	0.971
TYQGVPSWPAVIDDAIRR (Synthetic oral-surface binding peptide) [DenP19]	1.052
VEPATKNMREARSSTQMRRI (Synthetic oral-surface binding peptide) [DenP4]	1.421
VNPNWVETQALHQPPGNT (Synthetic oral-surface binding peptide) [DenP20]	1.298
YLLPKDQTTAPQVTPIVQHK (Synthetic oral-surface binding peptide) [DenP5]	1.087

tested on: pellicle coated enamel substrates; assay: not given; details: 20 μM biotinylated peptide, streptavidin-HRP, normalized to DenP03, three replicates
Experimental: A total of 20 synthetic peptides were manufactured using sequences obtained from Table 6. Peptides were obtained from SynBioSci Corp. (Livermore, Calif.) and included an additional sequence (SSRP; SEQ ID NO: 118) at the N-terminus and biotin labeled lysine at the C-terminus.
Enamel substrates were cut into approximately 7 mm squares and mounted on wax mounting for incubation in the mouth for 30 min to form a pellicle coated surface. The pellicle coated enamel substrates were removed from the wax backing and placed in well plates with the pellicle surface exposed as in Example 5. Each pellicle coated substrate was incubated for 1 h at room temperature (˜22° C.) with 1 mL of blocking buffer, consisting of 1 mg/mL BSA in PBST (Pierce BUPH™ #28372 with 0.1% TWEEN® 20). The blocking buffer was removed by aspirating the liquid out of each well. The tube was rinsed 2 times with wash buffer consisting of PBST. The wells were filled with 500 μL of 20 μM peptide solution which was prepared by diluting in blocking buffer. The samples were incubated for 30 min with slow shaking at 37° C. The non-binding peptide was removed by washing 6 times with PBST. Then, 500 μL of horseradish peroxidase/streptavidin conjugate (Pierce #22127), diluted 1:2000 in PBST, was added and incubated for 1 h at room temperature (˜22° C.). The conjugate solution was removed and was washed 4 times with PBST.
Each enamel substrate was removed from the well and washed again in a 15-mL test tube with 10 mL of PBST. Each enamel substrate was then mounted in a clean well plate with only the enamel surface exposed. A 1:1 solution of TMB substrate and H2O2 (200 μL) was added to each well and the color was allowed to develop for between 10 to 20 min, typically for 15 min, at room temperature (˜22° C.). Then, 100 μL of solution from each well was transferred to a 96 well reading plate containing stop solution (100 μL of 2 M H2SO4) in each well. The A450 was measured using a microplate spectrophotometer (Molecular Devices, Sunnyvale, Calif.). […] Each sequence was tested with three replicate enamel coated pellicle substrates.

Substance	O.D.450 (normalized)
SSRPAPPTYQTASYPHNLPSKRKMK(Biotin) [DenP28-A]	0.811
SSRPDLGTFPNRTLKMAAHK(Biotin) [DenP11-A]	0.454
SSRPEFPYYNDNPPNPERHTLRK(Biotin) [DenP7-A]	0.356
SSRPELDHDSRHYMNGLQRKVTK(Biotin) [DenP15-A]	0.460
SSRPFDGIGLGTATRHQNRK(Biotin) [DenP12-A]	0.475
SSRPGPQHVLMQDTHQGYAFDNK(Biotin) [DenP16-A]	0.309
SSRPHDPNHLTHQARTIYRNANHTK(Biotin) [DenP23-A]	0.850
SSRPIYPNESMSTSNVRGPYHPK(Biotin) [DenP22-A]	0.354
SSRPNGNNHTDIPNRSSYTGGSFAK(Biotin) [DenP1-A]	0.154
SSRPQAAQVHMMQHSRPTTK(Biotin) [DenP13-A]	0.699
